Test results from ChEMBL document CHEMBL1155129, “Hepatitis C NS5B polymerase inhibitors: 4,4-Dialkyl-1-hydroxy-3-oxo-3,4-dihydronaphthalene-3-yl benzothiadiazine derivatives” (Bioorg Med Chem Lett, 2008).

Columns and labels:
[1] = Inhibition of HCV 1a NS5B polymerase; set-up: species or system Hepatitis C virus subtype 1a
[2] = tested on: Hepatitis C virus; experiment: Antiviral activity against HCV 1a in presence of 5% fetal calf serum by replicon based assay; assay type: functional, organism-based, Hepacivirus hominis; settings: subtype 1a
[3] = tested on: Hepatitis C virus; experiment: Antiviral activity against HCV 1b in presence of 5% fetal calf serum by replicon based assay; assay type: functional, organism-based, Hepacivirus hominis; settings: genotype 1b
[4] = tested on: Hepatitis C virus; experiment: Inhibition of HCV 1b NS5B polymerase; set-up: species or system Hepatitis C virus subtype 1b
[5] = Half life in rat at 5 mg/kg, iv; assay type: ADME, organism-based; set-up: dose 5 mg/kg, route intravenous; settings: in vivo
[6] = Volume of distribution at steady state in rat at 5 mg/kg, iv; assay type: ADME, organism-based; set-up: dose 5 mg/kg, route intravenous; settings: in vivo, read-out: Vdss
[7] = Volume of distribution at terminal phase in rat at 5 mg/kg, iv; assay type: ADME, organism-based; set-up: dose 5 mg/kg, route intravenous; settings: in vivo, read-out: Vbeta
[8] = AUC (0 to infinity) in rat at 5 mg/kg, iv; assay type: ADME, organism-based; set-up: time infinity, dose 5 mg/kg, route intravenous; settings: plasma
[9] = Plasma clearance in rat at 5 mg/kg, iv; assay type: ADME, organism-based; set-up: dose 5 mg/kg, route intravenous
[10] = Cmax in rat plasma at 5 mg/kg, po; assay type: ADME, organism-based; set-up: dose 5 mg/kg, route oral
[11] = Tmax in rat at 5 mg/kg, po; assay type: ADME, organism-based; set-up: dose 5 mg/kg, route oral; settings: in vivo
[12] = AUC (0 to infinity) in rat at 5 mg/kg, po; assay type: ADME, organism-based; set-up: time infinity, dose 5 mg/kg, route oral; settings: plasma
[13] = Oral bioavailability in rat at 5 mg/kg; assay type: ADME, organism-based; settings: in vivo
[14] = Drug level in rat liver at 5 mg/kg, po after 1 hr; assay type: ADME, organism-based; set-up: dose 5 mg/kg, route oral; settings: read-out: Activity
[15] = Drug level in rat liver at 5 mg/kg, po after 6 hrs; assay type: ADME, organism-based; set-up: dose 5 mg/kg, route oral; settings: read-out: Activity
[16] = Drug level in rat liver at 5 mg/kg, po after 12 hrs; assay type: ADME, organism-based; set-up: dose 5 mg/kg, route oral; settings: read-out: Activity
[17] = Drug level in rat liver at 5 mg/kg, po after 24 hrs; assay type: ADME, organism-based; set-up: dose 5 mg/kg, route oral; settings: read-out: Activity
[18] = Drug level in rat plasma at 5 mg/kg, po after 1 hr; assay type: ADME, organism-based; set-up: dose 5 mg/kg, route oral; settings: read-out: Activity
[19] = Drug level in rat plasma at 5 mg/kg, po after 6 hrs; assay type: ADME, organism-based; set-up: dose 5 mg/kg, route oral; settings: read-out: Activity
[20] = Drug level in rat plasma at 5 mg/kg, po after 12 hrs; assay type: ADME, organism-based; set-up: dose 5 mg/kg, route oral; settings: read-out: Activity
[21] = Ratio of drug level in liver to plasma in rat at 5 mg/kg, po after 1 hr; assay type: ADME, organism-based; set-up: dose 5 mg/kg, route oral; settings: other tissue
[22] = Ratio of drug level in liver to plasma in rat at 5 mg/kg, po after 6 hrs; assay type: ADME, organism-based; set-up: dose 5 mg/kg, route oral; settings: other tissue
[23] = Ratio of drug level in liver to plasma in rat at 5 mg/kg, po after 12 hrs; assay type: ADME, organism-based; set-up: dose 5 mg/kg, route oral; settings: other tissue
[24] = Half life in rat at 5 mg/kg, po; assay type: ADME, organism-based; set-up: dose 5 mg/kg, route oral; settings: in vivo

SMILES	IC50 [1] [nM]	EC50 [2] [nM]	EC50 [3] [nM]	IC50 [4] [nM]	further results
CCCC1(CCC)C(=O)C(C2=NS(=O)(=O)c3cc(OCC(N)=O)ccc3N2)=C(O)c2ccccc21	240	> 10000	810		
CCCCC1(CCCC)C(=O)C(C2=NS(=O)(=O)c3cc(NS(C)(=O)=O)ccc3N2)=C(O)c2ccccc21	10	280	48	73	half-life [5]: 4.3 h; Vd [6]: 1.87 L/kg; Vd [7]: 6.11 L/kg; AUC(0-inf) [8]: 7300 ng·h/mL; clearance [9]: 11.7 mL/min/kg; Cmax [10]: 580 ng/mL; Tmax [11]: 3 h; AUC(0-inf) [12]: 6400 ng·h/mL; bioavailability [13]: 94.3%; concentration at 1 h [14]: 14200 ng/g; concentration at 6 h [15]: 20800 ng/g; concentration at 12 h [16]: 4600 ng/g; concentration at 24 h [17]: 150 ng/g; concentration at 1 h [18]: 450 ng/mL; concentration at 6 h [19]: 410 ng/mL; concentration at 12 h [20]: 250 ng/mL; Ratio [21]: 34.3 mL/g; Ratio [22]: 48.2 mL/g; Ratio [23]: 17.3 mL/g; half-life [24]: 4.3 h
CC(C)CCn1c(=O)c(C2=NS(=O)(=O)c3ccccc3N2)c(O)c2ccccc21	540		250		
CC(C)CCC1(CCC(C)C)C(=O)C(C2=NS(=O)(=O)c3cc(OCC(N)=O)ccc3N2)=C(O)c2ccccc21	320	10100	> 3000		
CCCC1(CCC)C(=O)C(C2=NS(=O)(=O)c3cc(NS(C)(=O)=O)ccc3N2)=C(O)c2ccccc21	99		22	130	
CC1(C)C(=O)C(C2=NS(=O)(=O)c3cc(NS(C)(=O)=O)ccc3N2)=C(O)c2ccccc21	930			6260	
CCCCC1(CCCC)C(=O)C(C2=NS(=O)(=O)c3ccccc3N2)=C(O)c2ccccc21	990			2270	
O=c1c(C2=NS(=O)(=O)c3ccccc3N2)c(O)c2ccccc2n1NC1CCC1	280		100	480	
CCCC1(CCC)C(=O)C(C2=NS(=O)(=O)c3ccccc3N2)=C(O)c2ccccc21	2200				
CC1(C)C(=O)C(C2=NS(=O)(=O)c3ccccc3N2)=C(O)c2ccccc21	2200			6260	
CCCCC1(CCCC)C(=O)C(C2=NS(=O)(=O)c3cc(OCC(N)=O)ccc3N2)=C(O)c2ccccc21	260	9640	290	330	
CC(C)CCC1(CCC(C)C)C(=O)C(C2=NS(=O)(=O)c3ccccc3N2)=C(O)c2ccccc21	820				
CC(C)CCC1(CCC(C)C)C(=O)C(C2=NS(=O)(=O)c3cc(NS(C)(=O)=O)ccc3N2)=C(O)c2ccccc21	68			390	
